According to article PMC7843452, “Novel Hybrids of Podophyllotoxin and Coumarin Inhibit the Growth and Migration of Human Oral Squamous Carcinoma Cells” (Frontiers in Chemistry, 2021):
Like-named read-outs stand apart in the source and are kept apart here.

Experiments:
[1] = tested on: human oral squamous carcinoma HSC-2 cells; assay: CCK-8 antiproliferative assay, HSC-2; type: cell-based; settings: for IC50: read-out: IC50 (μM) HSC-2
Description: (§1) The in vitro antiproliferative activities of target compounds were investigated against human oral squamous carcinoma HSC-2, SCC-9, and A253 cells and human renal tubular epithelial HK-2 cells by Cell Counting Kit-8 (CCK-8) assay. The HSC-2, SCC-9, and A253 cell lines were purchased from Cobioer Biosciences (Nanjing, China), and HK-2 cell line was from KeyGen Biotech (Nanjing, China). The cells were placed into 96-well plates. After 24 h, cells were treated with 0.1% DMSO or different doses of test compounds for 72 h at 37°C in a CO2 incubator. Subsequently, 100 μl of CCK-8 test solution was added and incubated for 3 h at 37°C. The absorbance value of each well was measured at 450 nm.

[2] = tested on: human renal tubular epithelial HK-2 cells; assay: CCK-8 assay on normal cells, HK-2; type: cell-based; settings: read-out: IC50 (μM) HK-2
Description: as §1

[3] = tested on: human oral squamous carcinoma SCC-9 cells; assay: CCK-8 antiproliferative assay, SCC-9; type: cell-based; settings: for IC50: read-out: IC50 (μM) SCC-9
Description: as §1

[4] = tested on: human oral squamous carcinoma A253 cells; assay: CCK-8 antiproliferative assay, A253; type: cell-based; settings: for IC50: read-out: IC50 (μM) A253
Description: as §1

[5] = tested on: cleaved PARP; assay: Western blot, cleaved PARP; type: cell-based, human; settings: HSC-2, 0.1, 0.25 and 0.5 μM, 48 h, concentration-dependent
Description: (§2) After being cultured, HSC-2 cells were treated with 0.1% DMSO or different concentrations of compounds at 37°C for 48 h. Then, cells were collected, washed twice with PBS, and lysed with cold lysis buffer, followed by centrifugation. Then, the total proteins were collected, and protein concentration was quantified using Bradford assay. Equal amounts of proteins were electrophoresed by 10% sodium dodecyl sulfate–polyacrylamide gel electrophoresis (SDS-PAGE) and transferred onto nitrocellulose (NC) membrane. Membranes were blocked with 5% non-fat milk for 2 h, then washed, and incubated with primary antibodies overnight at 4°C. After being washed, the membranes were treated with secondary antibodies at room temperature for 2 h and then visualized using an ECL Western blotting kit.

[6] = tested on: p-AKT; assay: Western blot, p-AKT; type: cell-based, human; settings: HSC-2, 0.1, 0.25 and 0.5 μM, 48 h
Description: as §2

[7] = tested on: MMP-2; assay: Western blot, MMP-2; type: cell-based, human; settings: HSC-2, 0.1, 0.25 and 0.5 μM, 48 h
Description: as §2

[8] = tested on: Beclin1; assay: Western blot, Beclin1; type: cell-based, human; settings: HSC-2, 0.1, 0.25 and 0.5 μM, 48 h
Description: as §2

[9] = tested on: HSC-2 cells; assay: Cell cycle analysis by flow cytometry (PI); type: cell-based, human; settings: 48 h
Description: HSC-2 cells were incubated in six-well plates and then treated with 0.1% DMSO or different concentrations of test compounds for 48 h. Subsequently, cells were fixed with 70% ethanol at 4°C overnight. After that, cells were washed with phosphate-buffered saline (PBS) and stained with 100 μl of RNase A at 37°C for 30 min and then 400 μl of propidium iodide (PI) at 4°C for 30 min. The cell cycle was measured by flow cytometry.

[10] = tested on: HSC-2 cells; assay: AO/EB double staining assay; type: cell-based, human; settings: HSC-2, 0.1, 0.25 and 0.5 μM, 48 h
Description: HSC-2 cells were seeded on six-well plates and grown overnight at 37°C in a 5% CO2 incubator. Then, cells were incubated with 0.1% DMSO or different concentrations of compounds at 37°C for 48 h. Subsequently, cells were trypsinized, collected, washed with PBS, and stained with 100 μl of AO/EB dye at room temperature for 15 min in the dark. The dyeing cells were rinsed, suspended in incubation PBS, and then observed under a fluorescence microscope.

[11] = tested on: CDK2; assay: Western blot, CDK2; type: cell-based, human; settings: HSC-2, 0.1, 0.25 and 0.5 μM, 48 h
Description: as §2

[12] = tested on: p-mTOR; assay: Western blot, p-mTOR; type: cell-based, human; settings: HSC-2, 0.1, 0.25 and 0.5 μM, 48 h
Description: as §2

[13] = tested on: HSC-2 cells; assay: Wound healing migration assay; type: cell-based, human; settings: HSC-2, 0.1, 0.25 and 0.5 μM, 48 h, dose-dependent
Description: HSC-2 cells were seeded on six-well plates and grown to 80% at 37°C in a 5% CO2 incubator. Then, cells were scratched using the tip of the pipette, then washed with PBS to remove the non-adherent cells, and incubated with 0.1% DMSO or different concentrations of compounds at 37°C for 48 h. The images of cell migration were photographed with an inverted fluorescent microscope at 0 and 48 h.

[14] = tested on: HSC-2 cells; assay: Cell apoptosis analysis by flow cytometry (Annexin V/7-AAD); type: cell-based, human; settings: HSC-2, 0.1, 0.25 and 0.5 μM, 48 h, dose-dependent
Description: HSC-2 cells were seeded into six-well plates, grown overnight at 37°C in a 5% CO2 incubator, and then treated with 0.1% DMSO or different concentrations of test compounds for 48 h. Cells were washed twice with ice-cold PBS and then suspended with 500 μl of binding buffer. Subsequently, 5 μl of Annexin V-APC and 5 μl of 7-AAD were added, and the cells were incubated at room temperature for 15 min in the dark. The samples were analyzed by flow cytometry.

[15] = tested on: E-cadherin; assay: Western blot, E-cadherin; type: cell-based, human; settings: HSC-2, 0.1, 0.25 and 0.5 μM, 48 h
Description: as §2

[16] = tested on: p-AMPK; assay: Western blot, p-AMPK; type: cell-based, human; settings: HSC-2, 0.1, 0.25 and 0.5 μM, 48 h, dose-dependent
Description: as §2

[17] = tested on: HSC-2 cells; assay: Mitochondrial membrane potential assay (JC-1); type: cell-based, human; settings: HSC-2, 0.1, 0.25 and 0.5 μM, 48 h, JC-1, dose-dependent
Description: HSC-2 cells were seeded on six-well plates and grown overnight at 37°C in a 5% CO2 incubator. Then, cells were incubated with 0.1% DMSO or different concentrations of compounds at 37°C for 48 h. Subsequently, cells were trypsinized, washed with PBS, and resuspended in incubation buffer containing JC-1 at 37°C for 20 min in a 5% CO2 incubator. The dyeing cells were rinsed, suspended in incubation PBS, and then analyzed d by flow cytometry.

[18] = tested on: microtubule network in HSC-2 cells; assay: Immunofluorescence assay of microtubule network; type: cell-based, human; settings: HSC-2, 0.1, 0.25 and 0.5 μM, 48 h, dose-dependent
Description: HSC-2 cells were seeded on 24-well plates, grown overnight at 37°C in a 5% CO2 incubator, and then incubated with 0.1% DMSO or different concentrations of compounds at 37°C for 48 h. Cells were washed with PBS, fixed with 4% paraformaldehyde, and then further permeabilized with 0.5% Triton X-100 for 10 min. Subsequently, cells were blocked for 20 min by 50–100 μl of goat serum albumin at room temperature and then treated with α-tubulin primary antibody at 4°C for 2 h. Then, cells were treated with the Alexa Fluor 488-labeled goat anti-rabbit fluorescence secondary antibody at 37°C for 1 h in the dark, and the cell nuclei were labeled by DAPI at room temperature for 5 min. Finally, cells were visualized under a confocal microscope.

[19] = tested on: cyclin A2; assay: Western blot, cyclin A2; type: cell-based, human; settings: HSC-2, 0.1, 0.25 and 0.5 μM, 48 h
Description: as §2

[20] = tested on: cleaved caspase3; assay: Western blot, cleaved caspase3; type: cell-based, human; settings: HSC-2, 0.1, 0.25 and 0.5 μM, 48 h, concentration-dependent
Description: as §2

[21] = tested on: LC3; assay: Western blot, LC3; type: cell-based, human; settings: HSC-2, 0.1, 0.25 and 0.5 μM, 48 h
Description: as §2

[22] = tested on: human breast MCF-7 cells; design: method as in Sun et al., 2017; settings: in vitro; ref Sun et al., 2017; read-out: IC50 against MCF-7 cells; cited from earlier work
[23] = tested on: human non-small-cell lung carcinoma A549 cells; design: method as in Yang et al., 2019; settings: ref Yang et al., 2019; read-out: IC50 against A549 cells; cited from earlier work
[24] = tested on: MGC-803 cells; design: method as in Huang et al., 2017; settings: in vitro; ref Huang et al., 2017; cited from earlier work
[25] = tested on: NCI-H460 cells; design: method as in Huang et al., 2017; settings: in vitro; ref Huang et al., 2017; cited from earlier work
[26] = normal cells, CCK-8, 72 h, mean ± SD
[27] = Homo sapiens, HSC-2, CCK-8, 72 h, mean ± SD
[28] = Homo sapiens, SCC-9, CCK-8, 72 h, mean ± SD
[29] = Homo sapiens, A253, CCK-8, 72 h, mean ± SD

O=c1[nH]cc(F)c(=O)[nH]1 [5-FU]
IC50 ([1]; CCK-8, 72 h, mean ± SD): 7.12 ± 0.87 µM
IC50 [2, 26]: 8.77 ± 1.04 µM
IC50 ([3]; CCK-8, 72 h, mean ± SD): 5.35 ± 0.784 µM
IC50 ([4]; CCK-8, 72 h, mean ± SD): 5.52 ± 0.199 µM

COc1cc([C@@H]2c3cc4c(cc3[C@H](OC(=O)COc3ccc5c(C)cc(=O)oc5c3)[C@H]3COC(=O)[C@H]23)OCO4)cc(OC)c1OC [12a]
IC50 ([1]; Homo sapiens, HSC-2, 72 h): 0.281 ± 0.024 µM
IC50 ([2]; Homo sapiens, HK-2, 72 h): 0.814 ± 0.173 µM
IC50 ([3]; Homo sapiens, SCC-9, 72 h): 0.279 ± 0.041 µM
IC50 ([4]; Homo sapiens, A253, 72 h): 0.349 ± 0.063 µM

COc1cc([C@@H]2c3cc4c(cc3[C@H](OC(=O)COc3ccc5ccc(=O)oc5c3)[C@H]3COC(=O)[C@H]23)OCO4)cc(OC)c1OC [12b]
Relative level of cleaved PARP [5]: upregulated
Phosphorylation of AKT [6]: downregulated
IC50 ([1]; Homo sapiens, HSC-2, 72 h): 0.226 ± 0.021 µM
Expression of MMP-2 [7]: reduced
Aggregation of Beclin1 [8]: increasing
Effect on cell cycle ([9]; HSC-2, 0.1 μM): significant S accumulation
Effect on cell cycle ([9]; HSC-2, 0.25 and 0.5 μM): cell cycle arrest at both S and G2 phases
Morphological change, AO/EB staining [10]: chromatin condensation and shrinkage
Relative level of CDK2 [11]: suppressed in a concentration-dependent manner
IC50 ([2]; Homo sapiens, HK-2, 72 h): 0.626 ± 0.043 µM
mTOR phosphorylation [12]: inhibition
Cell migration [13]: inhibited HSC-2 cell migration
Induction of apoptosis [14]: obviously induced apoptosis
Expression of E-cadherin [15]: obviously enhanced
p-AMPK expression [16]: upregulated
Mitochondrial membrane potential (MMP) [17]: significantly decreased
IC50 ([3]; Homo sapiens, SCC-9, 72 h): 0.231 ± 0.05 µM
Effect on microtubule network organization [18]: disruption of microtubule network organizations
IC50 ([4]; Homo sapiens, A253, 72 h): 0.25 ± 0.019 µM
Relative level of cyclin A2 [19]: suppressed in a concentration-dependent manner
Relative level of cleaved caspase3 [20]: upregulated
Aggregation of LC3 [21]: increasing
Level of cleavage of LC3 (LC3-II) [21]: upregulated

N.N.[Cl][Pt][Cl] [Cisplatin, cisplatin]
IC50 ([1]; CCK-8, 72 h, mean ± SD): 2.03 ± 0.308 µM
IC50 [2, 26]: 5.36 ± 0.33 µM
IC50 ([3]; CCK-8, 72 h, mean ± SD): 2.35 ± 0.384 µM
IC50 ([4]; CCK-8, 72 h, mean ± SD): 1.62 ± 0.157 µM

COc1cc([C@@H]2c3cc4c(cc3[C@@H](O[C@@H]3O[C@@H]5CO[C@@H](C)O[C@H]5[C@H](O)[C@H]3O)[C@H]3COC(=O)[C@H]23)OCO4)cc(OC)c1O [Etoposide, etoposide]
IC50 [1, 27]: 1.25 ± 0.467 µM
IC50 ([2]; Homo sapiens, HK-2, normal cells, CCK-8, 72 h, mean ± SD): 3.04 ± 1.37 µM
IC50 [3, 28]: 1.15 ± 0.308 µM
IC50 [4, 29]: 0.95 ± 0.387 µM

COc1cc([C@@H]2c3cc4c(cc3[C@H](O)[C@H]3COC(=O)[C@H]23)OCO4)cc(OC)c1OC [compound 1, Podophyllotoxin]
IC50 ([1]; Homo sapiens, HSC-2, 72 h): 0.011 ± 0.003 µM
IC50 ([2]; Homo sapiens, HK-2, 72 h): 0.04 ± 0.006 µM
IC50 ([3]; Homo sapiens, SCC-9, 72 h): 0.009 ± 0.001 µM
IC50 ([4]; Homo sapiens, A253, 72 h): 0.01 ± 0.001 µM

COc1cc(C2c3cc4c(cc3C(OC(=O)CN3CCN(c5ccc(Cl)c(Cl)c5)CC3)C3COC(=O)C23)OCO4)cc(OC)c1OC (centres unmarked) [compound 5]
IC50 [22]: 2.78 ± 0.15 µM

COc1ccc(-c2coc3cc(OCC(=O)OC4c5cc6c(cc5C(c5cc(OC)c(OC)c(OC)c5)C5C(=O)OCC45)OCO6)ccc3c2=O)cc1 (centres unmarked) [compound 6]
IC50 [23]: 0.753 ± 0.173 µM

Cc1cc(=O)oc2cc(O)ccc12 [compound 7, 4-methylumbelliferone]
IC50 (μM) HSC-2 ([1]; CCK-8, 72 h, mean ± SD): no antiproliferative effect
IC50 [1, 27]: > 100 µM
IC50 (μM) SCC-9 ([3]; CCK-8, 72 h, mean ± SD): no antiproliferative effect
IC50 [3, 28]: > 100 µM
IC50 (μM) A253 ([4]; CCK-8, 72 h, mean ± SD): no antiproliferative effect
IC50 [4, 29]: > 100 µM

O=c1ccc2ccc(O)cc2o1 [compound 8, 7-hydroxycoumarin]
IC50 (μM) HSC-2 ([1]; CCK-8, 72 h, mean ± SD): no antiproliferative effect
IC50 [1, 27]: > 100 µM
IC50 (μM) SCC-9 ([3]; CCK-8, 72 h, mean ± SD): no antiproliferative effect
IC50 [3, 28]: > 100 µM
IC50 (μM) A253 ([4]; CCK-8, 72 h, mean ± SD): no antiproliferative effect
IC50 [4, 29]: > 100 µM

Cc1cc(=O)oc2c(CN3CCN(C(=O)Nc4ccc(Br)c(F)c4)CC3)c(O)ccc12 [compound 10]
IC50 [24]: 2.13 ± 0.75 µM
IC50 [25]: 1.86 ± 0.73 µM
